What was measured:
[1] = target: T1, SNAP tagged-FLT3 (Homo sapiens, UniProt P36888); assay: Tag-lite competition binding assay (Red-FL displacement, HTRF); conditions: cells expressing SNAP tagged-FLT3, 0.5 nM Red-FL
T1 construct: expressed in transfected cells
T1 sequence (P36888 27-993): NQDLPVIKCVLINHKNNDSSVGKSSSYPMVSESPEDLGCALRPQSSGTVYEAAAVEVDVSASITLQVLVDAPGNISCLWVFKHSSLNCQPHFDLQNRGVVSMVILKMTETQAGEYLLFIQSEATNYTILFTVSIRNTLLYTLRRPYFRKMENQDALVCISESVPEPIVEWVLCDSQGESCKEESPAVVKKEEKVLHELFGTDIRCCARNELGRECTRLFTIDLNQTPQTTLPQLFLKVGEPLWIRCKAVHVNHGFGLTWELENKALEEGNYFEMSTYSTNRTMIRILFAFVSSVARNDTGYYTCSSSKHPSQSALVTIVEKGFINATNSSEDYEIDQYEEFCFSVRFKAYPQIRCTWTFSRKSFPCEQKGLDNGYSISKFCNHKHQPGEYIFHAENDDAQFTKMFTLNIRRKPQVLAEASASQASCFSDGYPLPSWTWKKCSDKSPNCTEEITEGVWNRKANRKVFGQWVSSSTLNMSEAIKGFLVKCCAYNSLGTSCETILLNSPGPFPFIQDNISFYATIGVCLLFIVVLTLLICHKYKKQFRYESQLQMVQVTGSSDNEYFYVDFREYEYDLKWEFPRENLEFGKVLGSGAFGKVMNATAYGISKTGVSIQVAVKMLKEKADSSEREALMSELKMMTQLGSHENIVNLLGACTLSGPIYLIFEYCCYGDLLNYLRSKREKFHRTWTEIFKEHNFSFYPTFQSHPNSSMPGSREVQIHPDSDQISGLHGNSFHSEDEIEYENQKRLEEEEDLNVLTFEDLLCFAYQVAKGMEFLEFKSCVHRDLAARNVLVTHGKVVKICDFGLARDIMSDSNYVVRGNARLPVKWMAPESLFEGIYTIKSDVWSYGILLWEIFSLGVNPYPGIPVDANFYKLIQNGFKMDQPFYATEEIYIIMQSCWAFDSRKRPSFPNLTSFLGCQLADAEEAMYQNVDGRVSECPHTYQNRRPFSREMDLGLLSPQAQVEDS
Protocol: Covalent Labeling of Cells Expressing the SNAP Tagged-FLT3
Labelling of Adherent Cells
Cell culture medium was removed from the 96 well plates and 100 nM of SNAP-Lumi4 Tb previously diluted in the Tag-lite labelling medium, was added under 100 μl per well, and further incubated 1 h at 37° C. under 5% CO2. The excess of SNAP-Lumi4-Tb was removed by washing each well 4 times with 100 μl of Tag-lite labelling medium.
Labelling of a Batch of Cells and Cells Freezing
After removal of the cell culture medium from a flask containing adherent cells, 5 ml of Tag-lite labelling medium containing 100 nM of SNAP-Lumi4-Tb was added to the flask and incubated for 1 h at 37° C. under 5% CO2. The excess of SNAP-Lumi4-Tb was removed by washing each flask 4 times with 5 ml of Tag-lite labelling medium. Cells were detached, pelleted by centrifugation (5 min at 1,300 rpm) and suspended in a cell culture medium containing 10% DMSO. Then, cells were distributed at 5 millions cells per vial and slowly frozen to −80° C. in isopropanol then transferred in liquid nitrogen for storage.
Prior to their use, the frozen cells were thawed quickly at 37° C., the medium was removed from the vials and the cells were suspended in the Tag-lite labelling medium at a cell-density of 1 million cells/ml.
Tag-lite binding assays were performed 24 h after transfection on fresh cells. When using frozen cells, binding assays were carried out immediately after cells thawing. When the assay was carried out on adherent cells in 96-well plates, the cell density was 50,000 cells per well, while a density of 10,000 cells per well was used to carry out binding assays in suspension in 384-well small volume plates.
Competition Binding Assay
Both Red-FL and the compounds to be tested were diluted in Tag-lite labelling medium. Cells were incubated with 0.5 nM Red-FL in the presence of increasing concentrations of compounds to be tested. In the plates containing labelled cells, 50 μl (or 10 μl in 384-well plates) of Tag-lite labelling medium, 25 μl (or 5 μl in 384-well plates) of compounds to be tested were added and incubated for 1 h at Room temperature prior to the addition of 25 μl (or 5 μl in 384-well plates) of Red-FL. Plates were then incubated at room temperature for 4 h or overnight before signal detection.
(§1) Signal was detected using an advanced fluorescence microplate reader (RUBYstar, BMG Labtech) equipped with a HTRF optic module allowing a donor excitation at 337 nm and a signal collection both at 665 nm and 620 nm. A frequency of 20 flashes/well is selected for the laser excitation. The signal was collected both at 665 nm and 620 nm using the following time-resolved settings: delay 50 μs, integration time 400 μs. HTRF ratios were obtained by dividing the acceptor signal (665 nm) by the donor signal (620 nm) and multiplying this value by 10,000. The 10,000 multiplying factor is used solely for the purpose of easier data handling.
(§2) Data Analysis and Statistics
(§3) Kd values of the fluorescent ligand were determined from saturation curves of the specific binding using GraphPad Prism software (GraphPad Software, Inc., San Diego, Calif.). Ki values of the compounds were determined from binding competition experiments according to the Cheng and Prusoff equation. EC50 and IC50 values of the rh-FL and compounds were determined from sigmoidal dose-response curves using GraphPad Prism software (GraphPad Software, Inc., San Diego, Calif.).

[2] = target: T2, FLT3 receptor (Homo sapiens, UniProt P36888); assay: Auto-phosphorylation competition assay on RS4-11 cells (HTRF); assay type: cell-based; conditions: RS4-11 cells expressing endogenous FLT3, 0.1 μM rh-FL; read-out: IC50, μM Autophosphorylation
T2 construct: Auto-phosphorylation assays were performed on RS4-11 cells that express endogenous FLT3 receptor; endogenous in cells; host or cells: RS4-11 cells
T2 sequence (P36888 27-993): T1 sequence (P36888 27-993)
Protocol: Auto-Phosphorylation Assays
Auto-phosphorylation assays were performed on RS4-11 cells that express endogenous FLT3 receptor. A density of 50,000 cells per well was used to carry out this assay in suspension in 384-well small volume plates to determine the degree of phosphorylation of FLT3. In the aim to discover antagonist compounds and to develop this assay, we were determined the efficiency of FL on RS4-11 cells.
Both rh-FL and the compounds to be tested were diluted in Tag-lite labelling medium. Cells were incubated with 0.1 μM of rh-FL in the presence of increasing concentrations of compounds to be tested. In the plates containing RS4-11 cells (5 μl/well), 5 μl of compounds to be tested were added and incubated for 1 h at Room temperature prior to the addition of 2 μl of rh-FL at 0.1 μM. After incubation of 3 minutes at room temperature of rh-FL, 4 μl of lysis buffer were added and incubated for 2 h at room temperature. A mix of anti-FLT3 and an anti-TYR-969 FLT3 antibodies labeled with Lumi4-Tb and d2 respectively (4 μl) diluted in Tag-lite labelling medium, were added on cell lysate. Plates were then incubated at room temperature for 2 h or overnight before signal detection.
as §1, §2, §3

Row | Compound | IC50 [1] | IC50 [2]
1 | O=C(Nc1cc(Cl)ccc1O)c1cccc(S(=O)(=O)N2CCCCC2)c1 [Example 1, N-(5-chloro-2-hydroxyphenyl)-3-(piperidin-1-ylsulfonyl) benzamide] | 11.8 µM | 58 µM
2 | O=S(=O)(c1cccc(-c2nnc(-c3cc(Cl)ccc3O)[nH]2)c1)N1CCCCC1 [Example 4, 4-chloro-2-(5-(3-(piperidin-1-ylsulfonyl)phenyl)-4H-1,2,4-triazol-3-yl)phenol] | 26 µM | 20 µM
3 | O=S(=O)(c1cccc(-c2ncc(-c3cc(Cl)ccc3O)[nH]2)c1)N1CCCCC1 [Example 5, 4-chloro-2-(2-(3-(piperidin-1-ylsulfonyl)phenyl)-1H-imidazol-5-yl)phenol] | 33 µM | 17 µM
4 | NCCCN(C1CCCCC1)S(=O)(=O)c1cccc(-c2nc3cc(Cl)ccc3o2)c1 [Example 7, N-(3-aminopropyl)-3-(5-chloro-1,3-benzoxazol-2-yl)-N-cyclohexylbenzene-1-sulfonamide] | 10 µM | 63 µM
5 | O=S(=O)(c1cccc(-c2nc3cccc(O)c3[nH]2)c1)N1CCCCC1 [Example 8, 2-[3-(1-piperidylsulfonyl)phenyl]-3H-benzimidazol-4-ol] | 98 µM | 68 µM
6 | O=C(Nc1cc(Cl)ccc1-c1nnn[nH]1)c1cccc(S(=O)(=O)N2CCCCC2)c1 [Example 9, N-[5-chloro-2-(1H-1,2,3,4-tetrazol-5-yl)phenyl]-3-(piperidine-1-sulfonyl)benzamide] | 175 µM | 148 µM
7 | O=C(Nc1cccc(S(=O)(=O)N2CCCCC2)c1)c1cc(Cl)ccc1O [Example 10, 5-Chloro-2-hydroxy-N-[3-(piperidine-1sulfonyl)phenyl]benzamide] | 4.6 µM | 116 µM
8 | CN(C1CCCCCC1)S(=O)(=O)c1cccc(C(=O)Nc2cc(Cl)ccc2O)c1 [Example 11, N-(5-chloro-2-hydroxyphenyl)-3-[cycloheptyl(methyl)sulfamoyl]benzamide] | 27.5 µM | 41 µM

— patent US10065937B2, “FLT3 receptor antagonists” (INSERM (INSTITUT NATIONAL DE LA SANTÉ ET DE LA RECHERCHE …, priority 2014, dated 2018)
